Results: patent US20200069648A1, “HALOALLYLAMINE PYRAZOLE DERIVATIVE INHIBITORS OF LYSYL OXIDASES AND USES THEREOF” (Pharmaxis Ltd., priority 2017, published 2020)
Counter-ions that a name gives are not always drawn.

What was measured:
[1] = system: CCl4 induced liver fibrosis; test: CCl4 induced liver fibrosis model; type: in vivo; details: mice, CCl4 i.p. twice per week for 6 weeks; 0.1-100 mg/Kg; compared with vehicle-treated group
Procedure: An analysis of the use of LOXL2 inhibitors to treat inflammatory/fibrotic diseases is performed through the use of a CCl4 induced liver fibrosis model. Liver injury is frequently followed by complete parenchymal regeneration due to regenerative potency of hepatocytes. Continuous liver injury due to the administration of CCl4 leads to extracellular matrix accumulation, accompanied by recurrent hepatocyte necrosis, inflammation, and regenerative processes, causing liver fibrosis and consequently liver cirrhosis (see Natsume, M., et al., Attenuated liver fibrosis and depressed serum albumin levels in carbon tetrachloride-treated IL-6-deficient mice. J. Leukoc. Biol., 1999, 66, 601-608 also See Yao, Q, Y., et al. Inhibition by curcumin of multiple sites of the transforming growth factor-beta1 signalling pathway ameliorates the progression of liver fibrosis induced by carbon tetrachloride in rats. BMC Complement Altern Med. 2012 Sep. 16; 12(1):156.).
Mice are injected intraperitoneally with CCl4 (i.p.) 1 ml/kg 25% CCl4 in olive oil, twice per week for a total period of 6 weeks. Compound 15 is given 0.1-100 mg/Kg throughout the period of the experimental procedure or only 3 weeks after CCl4 administration and then throughout the entire study.

[2] = system: metastatic oral cancer cell line expressing DsRed; test: Oral metastatic cancer mouse model; type: in vivo; details: mice, 0.1-100 mg/Kg, up to five weeks; compared with vehicle-treated group
Procedure: An analysis of the use of LOXL2 inhibitors to treat cancer diseases is performed through the use of an oral metastatic cancer mouse model.
Mice are injected with a metastatic oral cancer cell line expressing DsRed for tracking. Mice are monitored weekly by in vivo imaging (IVIS) based on DsRed expression and by caliper measurements of mouse tongues over a period of up to five weeks. Compound 15 is given 0.1-100 mg/Kg throughout the period of the experimental procedure or only two times a week throughout the entire study.

Cc1nn(C/C(F)=C/CN)c(C)c1Cc1ccc(S(=O)(=O)N(C)C)c(Cl)c1 [Compound 15, (Z)-4-((1-(4-amino-2-fluorobut-2-en-1-yl)-3,5-dimethyl-1H-pyrazol-4-yl)methyl)-2-chloro-N,N-dimethylbenzenesulfonamide hydrochloride] was tested, and the “reduction in liver fibrosis by liver sirius red staining with quantification” value [1] was “up to 50%”, the spread of metastasis [2] was “significant reduction” and the “tongue cancer volume (tongue volume)” value [2] was “significant reduction”.
